The values that follow come from patent publication US8063071B2 (GlaxoSmithKline, LLC, priority 2007, dated 2011).

What is called inhibition is the change of the read-out against control, counted positive when it falls.

Assay [1] addresses T1, Recombinant human IKKβ (residues 1-737) (Homo sapiens, UniProt O14920).
T1 construct: Recombinant human IKKβ (residues 1-737); GST (C); made in house
T1 sequence (O14920 1-737): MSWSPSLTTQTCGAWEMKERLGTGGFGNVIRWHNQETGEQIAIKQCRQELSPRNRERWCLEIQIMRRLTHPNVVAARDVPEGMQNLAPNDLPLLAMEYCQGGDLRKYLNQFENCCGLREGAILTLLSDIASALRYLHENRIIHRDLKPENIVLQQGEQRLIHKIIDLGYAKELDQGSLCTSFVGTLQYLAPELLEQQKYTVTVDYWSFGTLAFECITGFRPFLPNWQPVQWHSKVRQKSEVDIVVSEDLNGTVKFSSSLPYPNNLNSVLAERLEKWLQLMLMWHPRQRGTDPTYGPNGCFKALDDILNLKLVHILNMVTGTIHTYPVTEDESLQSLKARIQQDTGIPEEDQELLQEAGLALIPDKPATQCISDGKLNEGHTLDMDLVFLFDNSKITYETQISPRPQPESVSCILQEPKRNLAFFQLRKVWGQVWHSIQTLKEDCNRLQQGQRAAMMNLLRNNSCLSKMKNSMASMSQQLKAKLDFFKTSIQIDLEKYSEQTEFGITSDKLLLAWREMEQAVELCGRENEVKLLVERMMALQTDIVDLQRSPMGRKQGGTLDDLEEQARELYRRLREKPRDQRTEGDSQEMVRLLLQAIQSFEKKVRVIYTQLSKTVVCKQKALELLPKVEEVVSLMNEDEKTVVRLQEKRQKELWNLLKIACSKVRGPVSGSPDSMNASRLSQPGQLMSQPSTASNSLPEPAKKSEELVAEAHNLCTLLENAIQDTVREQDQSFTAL
Description: IKK2 assay (TR-FRET). Format: biochemical. The following applies: ATP 1 μM final, read-out: pIC50 against IKK2 (converted). The method in brief:
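TR-FRET readout (665 nm over 620 nm Eu reference) of GST-IB Ser32/36 phosphorylation after 60 min detection. Reaction: 1 μM ATP, 25 nM substrate, 0.5-5 nM GST-fused IKKβ 1-737 from baculovirus, pH 7.4 HEPES buffer, 1.7% DMSO, 15 min room temperature, EDTA-terminated.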
(TR-FRET usually uses a lanthanide donor and a delayed reading to cut background.)

In assay [2] the test system is human monocyte stimulated cytokine production (TNF-α). The assay is described as follows: Monocyte assay (LPS-stimulated TNF-α production). Format: cell-based. To be noted: for IC50: 24 h, 200 ng/mL LPS, TNF-α by ELISA. The method in brief:
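TNF-α release was measured by ELISA after 24 hrs at 37 C. Cells were stimulated with 200 ng/mL E. coli LPS, with compound added 30 minutes beforehand (0.1% DMSO vehicle). Cells were Ficoll/MACS-isolated CD14+ human monocytes adhered at 1×10^6 cells/mL, and viability was checked by trypan blue.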
(In general: ELISA stands for enzyme-linked immunosorbent assay.)

Structures can show the parent of a compound that is named as a salt.

As for `CCS(=O)(=O)N1CCC(c2c[nH]c3c(C(N)=O)cc(-c4cc(F)cc(CNCc5cccs5)c4)cc23)CC1` [Example 325, 3-[1-(ethylsulfonyl)-4-piperidinyl]-5-(3-fluoro-5-{[(2-thienylmethyl)amino]methyl}phenyl)-1H-indole-7-carboxamide trifluoroacetate], the IC50 in assay [1] was at most 10 µM; in assay [2], at most 1.5 µM.
As to `CCS(=O)(=O)N1CCC(c2c[nH]c3c(C(N)=O)cc(-c4cc(F)cc(CNCCOC)c4)cc23)CC1` [Example 326, 3-[1-(ethylsulfonyl)-4-piperidinyl]-5-[3-fluoro-5-({[2-(methyloxy)ethyl]amino}methyl)phenyl]-1H-indole-7-carboxamide trifluoroacetate], the figures for the IC50 in assay [1] and in assay [2] were at most 10 µM and at most 1.5 µM, respectively.
In the case of `CCS(=O)(=O)N1CCC(c2c[nH]c3c(C(N)=O)cc(-c4cc(F)cc(CNCCCOC)c4)cc23)CC1` [Example 327, 3-[1-(ethylsulfonyl)-4-piperidinyl]-5-[3-fluoro-5-({[3-(methyloxy)propyl]amino}methyl)phenyl]-1H-indole-7-carboxamide trifluoroacetate], the IC50 in assay [1] is at most 10 µM; in assay [2], at most 1.5 µM.
As for `CCS(=O)(=O)N1CCC(c2c[nH]c3c(C(N)=O)cc(-c4cc(F)cc(CNCc5ccco5)c4)cc23)CC1` [Example 328, 3-[1-(ethylsulfonyl)-4-piperidinyl]-5-(3-fluoro-5-{[(2-furanylmethyl)amino]methyl}phenyl)-1H-indole-7-carboxamide trifluoroacetate], in assay [1], the IC50 is at most 10 µM. In addition, the inhibition at 0.3 µM in assay [2] (read-out: inhibition at 300 nM in the monocyte assay) lay within 0 to 60%.
Take `CCS(=O)(=O)N1CCC(c2c[nH]c3c(C(N)=O)cc(-c4cc(F)cc(CNCCC(C)C)c4)cc23)CC1` [Example 329, 3-[1-(ethylsulfonyl)-4-piperidinyl]-5-(3-fluoro-5-{[(3-methylbutyl)amino]methyl}phenyl)-1H-indole-7-carboxamide trifluoroacetate]: the IC50 in assay [1] is at most 10 µM; in assay [2] it was at most 1.5 µM.
The like results for `CCS(=O)(=O)N1CCC(c2c[nH]c3c(C(N)=O)cc(-c4cc(F)cc(CNCc5ccc(C)o5)c4)cc23)CC1` [Example 330, 3-[1-(ethylsulfonyl)-4-piperidinyl]-5-[3-fluoro-5-({[(5-methyl-2-furanyl)methyl]amino}methyl)phenyl]-1H-indole-7-carboxamide trifluoroacetate] were, in that order, at most 10 µM and above 1 µM.
For the compound `CCS(=O)(=O)N1CCC(c2c[nH]c3c(C(N)=O)cc(-c4cccc(C5CCCN5)c4)cc23)CC1` (stereo not drawn) [Example 332, 3-[1-(ethylsulfonyl)-4-piperidinyl]-5-[3-(2-pyrrolidinyl)phenyl]-1H-indole-7-carboxamide trifluoroacetate], the values for the IC50 in assay [1] and in assay [2] were at most 10 µM and at most 1.5 µM, respectively.
`CCS(=O)(=O)N1CCC(c2c[nH]c3c(C(N)=O)cc(-c4cc(CNC)ccc4F)cc23)CC1` [Example 333, 3-[1-(ethylsulfonyl)-4-piperidinyl]-5-{2-fluoro-5-[(methylamino)methyl]phenyl}-1H-indole-7-carboxamide trifluoroacetate]: the IC50 in assay [1] is at most 10 µM; in assay [2] it was at most 1.5 µM.
Taken in the same sequence, the figures for `CCCNCc1ccc(F)c(-c2cc(C(N)=O)c3[nH]cc(C4CCN(S(=O)(=O)CC)CC4)c3c2)c1` [Example 334, 3-[1-(ethylsulfonyl)-4-piperidinyl]-5-{2-fluoro-5-[(propylamino)methyl]phenyl}-1H-indole-7-carboxamide trifluoroacetate] were at most 10 µM and at most 1.5 µM.
The like results for `CCS(=O)(=O)N1CCC(c2c[nH]c3c(C(N)=O)cc(-c4cc(CNCC(C)C)ccc4F)cc23)CC1` [Example 335, 3-[1-(ethylsulfonyl)-4-piperidinyl]-5-(2-fluoro-5-{[(2-methylpropyl)amino]methyl}phenyl)-1H-indole-7-carboxamide trifluoroacetate] were, in that order, at most 10 µM and at most 1.5 µM.
Taken in the same sequence, the figures for `CCS(=O)(=O)N1CCC(c2c[nH]c3c(C(N)=O)cc(-c4cc(CNCC(C)(C)C)ccc4F)cc23)CC1` [Example 336, 5-(5-{[(2,2-dimethylpropyl)amino]methyl}-2-fluorophenyl)-3-[1-(ethylsulfonyl)-4-piperidinyl]-1H-indole-7-carboxamide trifluoroacetate] were at most 10 µM and at most 1.5 µM.
Take `CCS(=O)(=O)N1CCC(c2c[nH]c3c(C(N)=O)cc(-c4cc(CN[C@@H](C)C(C)C)ccc4F)cc23)CC1` [Example 337, 5-[5-({[(1S)-1,2-dimethylpropyl]amino}methyl)-2-fluorophenyl]-3-[1-(ethylsulfonyl)-4-piperidinyl]-1H-indole-7-carboxamide trifluoroacetate]: the IC50 is at most 10 µM in assay [1] and at most 1.5 µM in assay [2].
Taken in the same sequence, the figures for `CCS(=O)(=O)N1CCC(c2c[nH]c3c(C(N)=O)cc(-c4cc(CN[C@H](C)C(C)C)ccc4F)cc23)CC1` [Example 338, 5-[5-({[(1R)-1,2-dimethylpropyl]amino}methyl)-2-fluorophenyl]-3-[1-(ethylsulfonyl)-4-piperidinyl]-1H-indole-7-carboxamide trifluoroacetate] were at most 10 µM and above 1 µM.
The like results for `CCS(=O)(=O)N1CCC(c2c[nH]c3c(C(N)=O)cc(-c4cc(CNCC5CC5)ccc4F)cc23)CC1` [Example 339, 5-(5-{[(cyclopropylmethyl)amino]methyl}-2-fluorophenyl)-3-[1-(ethylsulfonyl)-4-piperidinyl]-1H-indole-7-carboxamide trifluoroacetate] were, in that order, at most 10 µM and above 1 µM.
The like results for `CCS(=O)(=O)N1CCC(c2c[nH]c3c(C(N)=O)cc(-c4cc(CN5CCCC5)ccc4F)cc23)CC1` [Example 340, 3-[1-(ethylsulfonyl)-4-piperidinyl]-5-[2-fluoro-5-(1-pyrrolidinylmethyl)phenyl]-1H-indole-7-carboxamide trifluoroacetate] were, in that order, at most 10 µM and above 1 µM.
As to `CCS(=O)(=O)N1CCC(c2c[nH]c3c(C(N)=O)cc(-c4cc(CN5CCOCC5)ccc4F)cc23)CC1` [Example 341, 3-[1-(ethylsulfonyl)-4-piperidinyl]-5-[2-fluoro-5-(4-morpholinylmethyl)phenyl]-1H-indole-7-carboxamide trifluoroacetate], the values for the IC50 in assay [1] and in assay [2] were at most 10 µM and above 1 µM, respectively.
The like results for `CCS(=O)(=O)N1CCC(c2c[nH]c3c(C(N)=O)cc(-c4cc(CNCCOC)ccc4F)cc23)CC1` [Example 342, 3-[1-(ethylsulfonyl)-4-piperidinyl]-5-[2-fluoro-5-({[2-(methyloxy)ethyl]amino}methyl)phenyl]-1H-indole-7-carboxamide trifluoroacetate] were, in that order, at most 10 µM and at most 1.5 µM.
For the compound `CCS(=O)(=O)N1CCC(c2c[nH]c3c(C(N)=O)cc(-c4cc(CNCCCOC)ccc4F)cc23)CC1` [Example 343, 3-[1-(ethylsulfonyl)-4-piperidinyl]-5-[2-fluoro-5-({[3-(methyloxy)propyl]amino}methyl)phenyl]-1H-indole-7-carboxamide trifluoroacetate], the IC50 is at most 10 µM in assay [1] and at most 1.5 µM in assay [2].
